Data as given in patent publication US9056111B1, “Selective efflux inhibitors and related pharmaceutical compositions and methods of treatment” (STC.UNM, priority 2011, dated 2015).

Key:
ABCB1 / ABCG2 = molecular target: T1, ABCB1 / ABCG2 (Homo sapiens, UniProt Q9UNQ0); experiment: JC-1 efflux inhibition dose response, flow cytometry, Ig-MXP3 cells; details: human, probe JC-1 (1 µM), ~Fold G2 Selective (B1/G2), quotient of average ABCB1 IC50 and average ABCG2 IC50, efflux assay
T1 sequence (Q9UNQ0 1-655): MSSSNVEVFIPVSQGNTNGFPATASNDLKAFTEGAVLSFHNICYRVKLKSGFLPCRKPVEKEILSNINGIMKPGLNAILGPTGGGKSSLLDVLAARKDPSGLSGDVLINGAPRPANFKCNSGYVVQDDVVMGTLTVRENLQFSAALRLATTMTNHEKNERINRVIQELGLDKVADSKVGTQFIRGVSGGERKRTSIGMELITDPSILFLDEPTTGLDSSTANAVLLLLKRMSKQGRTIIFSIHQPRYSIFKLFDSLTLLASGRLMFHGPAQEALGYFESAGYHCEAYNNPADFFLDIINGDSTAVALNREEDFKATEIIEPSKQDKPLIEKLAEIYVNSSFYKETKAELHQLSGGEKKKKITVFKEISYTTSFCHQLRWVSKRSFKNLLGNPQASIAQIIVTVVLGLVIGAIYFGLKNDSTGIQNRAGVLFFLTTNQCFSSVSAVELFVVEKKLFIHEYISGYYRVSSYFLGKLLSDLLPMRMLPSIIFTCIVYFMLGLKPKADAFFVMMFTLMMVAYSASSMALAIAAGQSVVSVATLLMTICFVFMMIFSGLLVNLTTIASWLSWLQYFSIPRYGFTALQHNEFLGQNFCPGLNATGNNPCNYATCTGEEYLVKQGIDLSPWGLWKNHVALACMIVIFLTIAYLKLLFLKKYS
Experimental: (§1) The HyperCyt® high throughput flow cytometry platform (IntelliCyt™, Albuquerque, N. Mex.) was used to sequentially sample cells from 384-well microplates (2 μL/sample) for flow cytometer presentation at a rate of 40 samples per minute.^62-63 Flow cytometric analysis was performed on a CyAn™ flow cytometer (Beckman-Coulter, Fullerton, Calif.). The resulting time-gated data files were analyzed with HyperView® software to determine compound activity in each well. Inhibition response curves were fitted by Prism® software (GraphPad Software, Inc., San Diego, Calif.) using nonlinear least-squares regression in a sigmoidal dose response model with variable slope, also known as the four-parameter logistic equation. This type of time-gated flow cytometric data analysis was described in detail for a previous ABC transporter screen from our group.^56
(§2) The assay provider's ABCB1 over-expressing Jurkat-DNR cell line is used for confirmatory follow up instead of the CCRF-Adr cells. Each cell line (Jurkat-DNR and Ig-MXP3) is run separately against all compounds (no differential cell staining) in dose response. The assay is conducted in 384-well format in a total volume of 15.1 μL. Cells and reagents are added sequentially as follows: 1) PBS buffer (5 μL/well); 2) test compound (100 nL/well); 3) drug-resistant cells (10 μL/well) pre-stained with the JC-1 substrate at 1 μM. […] Nicardipine (50 μM) is added to each plate as a pan-inhibition positive control.
(§3) Each cell line (Jurkat-DNR and Ig-MXP3) was run separately against all compounds (no differential cell staining) in dose-response. The protocol differed from the single point screen as describe here. Cells and reagents were added sequentially as follows: 1) PBS buffer (5 μL per well); 2) test compound (100 nL per well); 3) drug-resistant cells (10 μL, per well) pre-exposed to the JC-1 substrate at 1 μM just prior to the well addition.

ABCG2 = molecular target: T2, ABCG2 (Homo sapiens, UniProt Q9UNQ0); experiment: as above
T2 sequence (Q9UNQ0 1-655): T1 sequence (Q9UNQ0 1-655)
Experimental: as §1, §2, §3

ABCB1 = ABCB1 (Homo sapiens, UniProt P08183); experiment: JC-1 efflux inhibition dose response, flow cytometry, Jurkat-DNR cells; details: IC50 ABCB1 (efflux inhibition of JC-1 substrate), Jurkat-DNR cells over-expressing ABCB1; averages of two to four replicates
Experimental: as §1
The assay provider's ABCB1 over-expressing Jurkat-DNR cell line is used for confirmatory follow up instead of the CCRF-Adr cells. Each cell line (Jurkat-DNR and Ig-MXP3) is run separately against all compounds (no differential cell staining) in dose response. The assay is conducted in 384-well format in a total volume of 15.1 μL. Cells and reagents are added sequentially as follows: 1) PBS buffer (5 μL/well); 2) test compound (100 nL/well); 3) drug-resistant cells (10 μL/well) pre-stained with the JC-1 substrate at 1 μM. Final in-well concentrations of test compound range from 50 μM to 69 nM over an 18 point dose response and the cell concentration is 1×10^6 cells/mL. Nicardipine (50 μM) is added to each plate as a pan-inhibition positive control. The plate is rotated end-over-end at 4 RPM and 25° C. for 30 minutes and then cell samples are analyzed and flow cytometric data of light scatter and fluorescence emission at 530+/−20 nm (488 nm excitation, FL1) are collected.
as §3, with “addition. Final in-well concentrations of test compound ranged from 50 μM to 69 nM over an 18 point dose-response and the cell concentration was 1×10^6 cells mL^−1.” for “addition.”

ABCB1, sequence (P08183 whole entry): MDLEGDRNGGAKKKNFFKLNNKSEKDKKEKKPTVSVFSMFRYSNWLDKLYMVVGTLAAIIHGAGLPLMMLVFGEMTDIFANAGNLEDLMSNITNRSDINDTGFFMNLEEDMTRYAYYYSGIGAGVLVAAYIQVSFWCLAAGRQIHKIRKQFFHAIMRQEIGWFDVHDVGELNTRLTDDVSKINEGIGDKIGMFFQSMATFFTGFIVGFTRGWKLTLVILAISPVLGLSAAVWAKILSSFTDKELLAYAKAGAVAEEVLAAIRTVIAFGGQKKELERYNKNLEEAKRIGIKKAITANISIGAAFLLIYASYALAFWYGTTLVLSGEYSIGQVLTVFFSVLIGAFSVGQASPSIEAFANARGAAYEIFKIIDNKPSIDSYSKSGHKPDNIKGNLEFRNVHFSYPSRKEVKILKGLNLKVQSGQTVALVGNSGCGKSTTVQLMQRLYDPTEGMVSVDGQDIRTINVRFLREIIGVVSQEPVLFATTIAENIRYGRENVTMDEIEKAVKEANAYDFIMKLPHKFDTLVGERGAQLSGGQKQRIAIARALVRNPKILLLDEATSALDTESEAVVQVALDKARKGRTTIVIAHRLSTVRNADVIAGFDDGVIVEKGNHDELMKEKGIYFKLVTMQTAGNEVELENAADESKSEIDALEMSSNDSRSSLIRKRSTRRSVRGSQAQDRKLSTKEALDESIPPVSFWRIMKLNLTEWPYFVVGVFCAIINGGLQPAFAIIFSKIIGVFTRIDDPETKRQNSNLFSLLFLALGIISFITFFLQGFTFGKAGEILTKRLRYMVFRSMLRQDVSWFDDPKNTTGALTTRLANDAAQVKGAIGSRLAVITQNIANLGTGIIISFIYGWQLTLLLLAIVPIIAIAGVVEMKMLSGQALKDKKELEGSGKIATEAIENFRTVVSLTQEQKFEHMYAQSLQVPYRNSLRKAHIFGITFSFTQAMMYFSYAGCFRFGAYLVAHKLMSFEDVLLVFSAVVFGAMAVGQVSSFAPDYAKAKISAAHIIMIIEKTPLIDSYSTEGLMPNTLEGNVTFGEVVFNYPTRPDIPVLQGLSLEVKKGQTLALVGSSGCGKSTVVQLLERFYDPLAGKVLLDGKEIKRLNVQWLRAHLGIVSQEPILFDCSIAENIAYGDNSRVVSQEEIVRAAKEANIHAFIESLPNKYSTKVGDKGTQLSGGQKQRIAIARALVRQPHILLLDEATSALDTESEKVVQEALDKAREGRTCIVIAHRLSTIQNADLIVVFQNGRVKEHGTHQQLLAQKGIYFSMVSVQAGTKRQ

Structure (SMILES) | IC50 (ABCG2) [µM] | IC50 (ABCB1) [µM] | ~Fold G2 Selective (B1/G2) (ABCG2; quotient of average ABCB1 IC50 and average ABCG2 IC50, efflux assay) [fold] | selectivity ratio at 30 min (ABCB1 / ABCG2)
O=C(c1ccccc1)N1CCN(c2cc(-c3ccccc3)nc3cc(-c4cccc(Cl)c4)nn23)CC1 [Compound 13] | 1.45 ± 0.59 | 3.42 ± 1.64 | – | 2.4
COc1cccc(-c2cc3nc(-c4ccccc4)cc(N4CCN(C(=O)c5ccco5)CC4)n3n2)c1 [Compound 38] | 1.4 ± 0.32 | 4.77 ± 0.63 | – | 3.4
O=C(C1CCCCC1)N1CCN(c2cc(-c3ccccc3)nc3cc(-c4cccc(Cl)c4)nn23)CC1 [Compound 22] | 2.67 ± 1.26 | 3.31 ± 1.86 | – | 1.2
Cc1cc(N2CCN(C(=O)c3ccco3)CC2)n2nc(-c3cccc(Cl)c3)cc2n1 [Compound 10] | 2.78 ± 0.82 | 5.88 ± 1.17 | – | 2.1
O=C(c1ccoc1)N1CCN(c2cc(-c3ccccc3)nc3cc(-c4ccc(Br)cc4)nn23)CC1 [Compound 33] | 0.76 ± 0.43 | 1.31 ± 0.35 | – | 1.7
O=C(c1cccc(Cl)c1)N1CCN(c2cc(-c3ccccc3)nc3cc(-c4cccc(Cl)c4)nn23)CC1 [Compound 18] | 2.95 ± 0.57 | 4.19 ± 1.88 | – | 1.4
O=C(c1ccsc1)N1CCN(c2cc(-c3ccccc3)nc3cc(-c4cccc(Cl)c4)nn23)CC1 [Compound 12] | 1.4 ± 0.32 | 3.97 ± 0.8 | – | 2.8
COc1cccc(-c2cc(N3CCN(C(=O)c4ccoc4)CC3)n3nc(-c4cccc(Cl)c4)cc3n2)c1 [Compound 28] | 1.14 ± 0.54 | 2.17 ± 1.02 | – | 1.9
O=C(c1ccoc1)N1CCN(c2cc(-c3ccc(F)cc3)nc3cc(-c4cccc(Cl)c4)nn23)CC1 [Compound 27] | 2.41 ± 0.52 | 5.65 ± 0.11 | – | 2.3
COc1ccc(-c2cc(N3CCN(C(=O)c4ccoc4)CC3)n3nc(-c4cccc(Cl)c4)cc3n2)cc1 [Compound 29] | 1.71 ± 0.58 | 4.12 ± 1.05 | – | 2.4
COc1cccc(-c2cc3nc(-c4ccccc4)cc(N4CCN(C(=O)c5ccoc5)CC4)n3n2)c1 [Compound 35] | 1.14 ± 0.59 | 2.26 ± 0.83 | – | 2
O=C(c1ccoc1)N1CCN(c2cc(-c3ccccc3)nc3cc(-c4cccc(Cl)c4)nn23)CC1 [Compound 11] | 1.19 ± 0.26 | 8.58 ± 0.63 | 7.2 | 7
CC(=O)N1CCN(c2cc(-c3ccccc3)nc3cc(-c4cccc(Cl)c4)nn23)CC1 [Compound 23] | 6.07 ± 0.73 | 5.67 ± 2.21 | – | 0.9

Continued, in another order:

IC50 (ABCG2) [µM] | IC50 (ABCB1) [µM] | ~Fold G2 Selective (B1/G2) (ABCG2; quotient of average ABCB1 IC50 and average ABCG2 IC50, efflux assay) [fold] | Structure (SMILES) | selectivity ratio at 30 min (ABCB1 / ABCG2)
7.68 ± 1.69 | 27.7 ± 14.5 | – | CN(C)c1cc(-c2ccco2)nc2cc(-c3ccccc3)nn12 [Compound 82] | 3.6
1.37 ± 0.53 | 3.64 ± 1.47 | – | O=C(c1ccco1)N1CCN(c2cc(-c3ccccc3)nc3cc(-c4ccc(Cl)cc4)nn23)CC1 [Compound 39] | 2.7
2.18 ± 1.93 | 1.63 ± 0.59 | – | Cc1nc2cc(-c3ccccc3)nn2c(N2CCN(C(=O)c3ccoc3)CC2)c1C [Compound 89] | 0.7
0.84 ± 0.87 | 0.68 | – | Cc1ccc(-c2cc(N3CCN(C(=O)c4ccoc4)CC3)n3nc(-c4ccccc4)cc3n2)o1 [Compound 66] | 0.8
2.77 ± 4.01 | 6.57 ± 2.13 | – | O=C(c1ccco1)N1CCN(c2cc(-c3ccco3)nc3cc(-c4ccccc4)nn23)CC1 [Compound 67] | 2.4
1.68 ± 0.61 | 7.07 | – | O=C(c1ccoc1)N1CCN(c2cc(-c3cccc(F)c3)nc3cc(-c4ccccc4)nn23)CC1 [Compound 47] | 4.2
0.58 | 3.45 | – | Cc1cccc(-c2cc3nc(-c4ccco4)cc(N4CCN(C(=O)c5ccoc5)CC4)n3n2)c1 [Compound 58] | 5.9
1.62 ± 1.27 | 5.56 ± 1.25 | – | O=C(c1ccccc1)N1CCN(c2cc(-c3ccco3)nc3cc(-c4ccccc4)nn23)CC1 [Compound 69] | 3.4
1.56 ± 1.3 | 8.42 | – | O=C(c1ccoc1)N1CCN(c2cc(-c3ccco3)nc3cc(-c4cccs4)nn23)CC1 [Compound 51] | 5.4
3.07 ± 1.88 | 8.99 ± 3.67 | – | c1ccc(CN2CCN(c3cc(-c4ccco4)nc4cc(-c5ccccc5)nn34)CC2)cc1 [Compound 75] | 2.9
0.56 | 5.61 | – | O=C(c1ccoc1)N1CCN(c2cc(-c3ccccc3F)nc3cc(-c4ccccc4)nn23)CC1 [Compound 46] | 10
2.76 ± 2.14 | 5.57 | – | COc1ccccc1-c1cc2nc(-c3ccco3)cc(N3CCN(C(=O)c4ccoc4)CC3)n2n1 [Compound 55] | 2
1.89 ± 1.18 | 41.5 | – | O=C(c1ccoc1)N1CCN(c2cc(-c3ccco3)nc3cc(-c4ccc(Cl)cc4)nn23)CC1 [Compound 54] | 22
1.64 ± 0.03 | 3.46 | – | O=C(c1ccoc1)N1CCN(c2cc(-c3cccs3)nc3cc(-c4ccccc4)nn23)CC1 [Compound 64] | 2.1
1.97 | 3.31 | – | CC(C)(C)c1cc2nc(-c3ccco3)cc(N3CCN(C(=O)c4ccoc4)CC3)n2n1 [Compound 50] | 1.7
1.58 ± 0.63 | 4.79 ± 4.23 | – | O=C(c1ccoc1)N1CCN(c2cc(-c3ccccc3)nc3cc(-c4ccccc4)nn23)CC1 [Compound 62] | 3
6.45 | 11.8 | – | O=C(c1ccoc1)N1CCN(c2cc(-c3ccc(F)cc3)nc3cc(-c4ccccc4)nn23)CC1 [Compound 48] | 1.8
5.71 ± 1.8 | 23.6 ± 12.1 | – | c1ccc(-c2cc3nc(-c4ccco4)cc(N4CCNCC4)n3n2)cc1 [Compound 77] | 4.1
